Patent publication US6914045B2, “Glycopeptide antibiotics” (Wyeth Holdings Corporation, priority 2001, dated 2005)
Converted amounts (≈) assume the structure as drawn.

Key:
Assay in all cases: in vitro antibacterial evaluation, MIC by broth dilution
Type in all cases: cell-based
Escherichia coli = tested on: Escherichia coli
Method in brief: (§1)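 Inoculum 5×10^5 CFU/mL; concentrations 64 to 0.06 μg/mL; MIC defined as lowest inhibitory level. Conducted by broth dilution under NCCLS guidelines.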

Staphylococcus sp. = conditions: broth dilution, 18 hours at 35° C.; for MIC Staphylococcus aureus (GC 1131): strain GC 1131
Method in brief: as §1

Streptococcus sp. = conditions: broth dilution, 18 hours at 35° C.
Method in brief: as §1

Enterococcus sp. = conditions: broth dilution, 18 hours at 35° C.
Method in brief: as §1

COc1cc(C2OCC3OC(OC4C(CO)OC(Oc5ccc(CC6NC(=O)C(C(C)c7ccccc7)NC(=O)CNC(=O)C(CO)NC(=O)C(C(O)C7CNC(=N)N7C7OC(CO)C(O)C(O)C7O)NC(=O)C(C(O)C7CNC(=N)N7)NC6=O)cc5)C(O)C4O)C(O)C(O)C3O2)ccc1[N+](=O)[O-] (centres unmarked) [Example 153]
MIC Escherichia coli (ATCC 25922) (Escherichia coli; strain ATCC 25922, 18 hours at 35° C.): 64 µg/mL (≈ 43.9 µM)
MIC Escherichia coli (GC 4559) (Escherichia coli; strain GC 4559, 18 hours at 35° C.): 64 µg/mL (≈ 43.9 µM)
MIC Staphylococcus aureus (GC 1131) (Staphylococcus sp.; inoculum 5×10^5 CFU/mL): 2 µg/mL (≈ 1.37 µM)
MIC Staphylococcus aureus (ATCC 29213) (Staphylococcus sp.; strain ATCC 29213): 2 µg/mL (≈ 1.37 µM)
MIC Staphylococcus aureus (GC 1131) (Staphylococcus sp.): 2 µg/mL (≈ 1.37 µM)
MIC Staphylococcus aureus (GC 3051) (Staphylococcus sp.; strain GC 3051): 2 µg/mL (≈ 1.37 µM)
MIC Staphylococcus aureus (GC 3053) (Staphylococcus sp.; strain GC 3053): 4 µg/mL (≈ 2.74 µM)
MIC Staphylococcus aureus (GC 4541) (Staphylococcus sp.; strain GC 4541): 2 µg/mL (≈ 1.37 µM)
MIC Staphylococcus aureus (GC 4542) (Staphylococcus sp.; strain GC 4542): 2 µg/mL (≈ 1.37 µM)
MIC Staphylococcus aureus-SMITH (GC 4543) (Staphylococcus sp.; strain GC 4543): 1 µg/mL (≈ 0.686 µM)
MIC Staphylococcus aureus (GC 4544) (Staphylococcus sp.; strain GC 4544): 2 µg/mL (≈ 1.37 µM)
MIC Staphylococcus aureus (GC 4545) (Staphylococcus sp.; strain GC 4545): 2 µg/mL (≈ 1.37 µM)
MIC Staphylococcus haemolyticus (GC 4546) (Staphylococcus sp.; strain GC 4546): 1 µg/mL (≈ 0.686 µM)
MIC Coagulase Negative Staphylococcus (GC 4547) (Staphylococcus sp.; strain GC 4547): 1 µg/mL (≈ 0.686 µM)
MIC Coagulase Negative Staphylococcus (GC 4548) (Staphylococcus sp.; strain GC 4548): 0.5 µg/mL (≈ 0.343 µM)
MIC Coagulase Negative Staphylococcus (GC 4549) (Staphylococcus sp.; strain GC 4549): 0.5 µg/mL (≈ 0.343 µM)
MIC Coagulase Negative Staphylococcus (GC 4551) (Staphylococcus sp.; strain GC 4551): 2 µg/mL (≈ 1.37 µM)
MIC Coagulase Negative Staphylococcus (GC 6257) (Staphylococcus sp.; strain GC 6257): 0.5 µg/mL (≈ 0.343 µM)
MIC Staphylococcus aureus-SMITH (GC 4543) (Staphylococcus sp.; strain SMITH GC 4543): 1 µg/mL (≈ 0.686 µM)
MIC Streptococcus agalactiae (GC 4564) (Streptococcus sp.; Streptococcus agalactiae (GC 4564)): 0.5 µg/mL (≈ 0.343 µM)
MIC Streptococcus pneumoniae (ATCC 6301) (Streptococcus sp.; Streptococcus pneumoniae (ATCC 6301)): <0.06 µg/mL
MIC Streptococcus pneumoniae (GC 1894) (Streptococcus sp.; Streptococcus pneumoniae (GC 1894)): <0.06 µg/mL
MIC Streptococcus pneumoniae (GC 4565) (Streptococcus sp.; Streptococcus pneumoniae (GC 4565)): <0.06 µg/mL
MIC Streptococcus pyogenes (GC 4563) (Streptococcus sp.; Streptococcus pyogenes (GC 4563)): 0.25 µg/mL (≈ 0.171 µM)
MIC Streptococcus pneumoniae (ATCC 6301) (Streptococcus sp.; strain ATCC 6301): <0.06 µg/mL
MIC Streptococcus pneumoniae (GC 1894) (Streptococcus sp.; strain GC 1894): <0.06 µg/mL
MIC Streptococcus pyogenes (GC 4563) (Streptococcus sp.; strain GC 4563): 0.25 µg/mL (≈ 0.171 µM)
MIC Streptococcus agalactiae (GC 4564) (Streptococcus sp.; strain GC 4564): 0.5 µg/mL (≈ 0.343 µM)
MIC Streptococcus pneumoniae (GC 4565) (Streptococcus sp.; strain GC 4565): <0.06 µg/mL
MIC Enterococcus avium (GC 4558) (Enterococcus sp.; Enterococcus avium (GC 4558)): 8 µg/mL (≈ 5.49 µM)
MIC Enterococcus faecalis (ATCC 29212) (Enterococcus sp.; Enterococcus faecalis (ATCC 29212)): 8 µg/mL (≈ 5.49 µM)
MIC Enterococcus faecalis (GC 2242) (Enterococcus sp.; Enterococcus faecalis (GC 2242)): 4 µg/mL (≈ 2.74 µM)
MIC Enterococcus faecalis (GC 2691) (Enterococcus sp.; Enterococcus faecalis (GC 2691)): 8 µg/mL (≈ 5.49 µM)
MIC Enterococcus faecalis (GC 3059) (Enterococcus sp.; Enterococcus faecalis (GC 3059)): 8 µg/mL (≈ 5.49 µM)
MIC Enterococcus faecalis (GC 4552) (Enterococcus sp.; Enterococcus faecalis (GC 4552)): 8 µg/mL (≈ 5.49 µM)
MIC Enterococcus faecalis (GC 4553) (Enterococcus sp.; Enterococcus faecalis (GC 4553)): 8 µg/mL (≈ 5.49 µM)
MIC Enterococcus faecalis (GC 4554) (Enterococcus sp.; Enterococcus faecalis (GC 4554)): 8 µg/mL (≈ 5.49 µM)
MIC Enterococcus faecalis (GC 6189) (Enterococcus sp.; Enterococcus faecalis (GC 6189)): 4 µg/mL (≈ 2.74 µM)
MIC Enterococcus faecium (GC 2243) (Enterococcus sp.; Enterococcus faecium (GC 2243)): 4 µg/mL (≈ 2.74 µM)
MIC Enterococcus faecium (GC 4556) (Enterococcus sp.; Enterococcus faecium (GC 4556)): 4 µg/mL (≈ 2.74 µM)
MIC Enterococcus faecium (GC 4557) (Enterococcus sp.; Enterococcus faecium (GC 4557)): 2 µg/mL (≈ 1.37 µM)
MIC Enterococcus faecalis (ATCC 29212) (Enterococcus sp.; strain ATCC 29212): 8 µg/mL (≈ 5.49 µM)
MIC Enterococcus faecalis (GC 2242) (Enterococcus sp.; strain GC 2242): 4 µg/mL (≈ 2.74 µM)
MIC Enterococcus faecium (GC 2243) (Enterococcus sp.; strain GC 2243): 4 µg/mL (≈ 2.74 µM)
MIC Enterococcus faecalis (GC 2691) (Enterococcus sp.; strain GC 2691): 8 µg/mL (≈ 5.49 µM)
MIC Enterococcus faecalis (GC 3059) (Enterococcus sp.; strain GC 3059): 8 µg/mL (≈ 5.49 µM)
MIC Enterococcus faecalis (GC 4552) (Enterococcus sp.; strain GC 4552): 8 µg/mL (≈ 5.49 µM)
MIC Enterococcus faecalis (GC 4553) (Enterococcus sp.; strain GC 4553): 8 µg/mL (≈ 5.49 µM)
MIC Enterococcus faecalis (GC 4554) (Enterococcus sp.; strain GC 4554): 8 µg/mL (≈ 5.49 µM)
MIC Enterococcus faecium (GC 4556) (Enterococcus sp.; strain GC 4556): 4 µg/mL (≈ 2.74 µM)
MIC Enterococcus faecium (GC 4557) (Enterococcus sp.; strain GC 4557): 2 µg/mL (≈ 1.37 µM)
MIC Enterococcus avium (GC 4558) (Enterococcus sp.; strain GC 4558): 8 µg/mL (≈ 5.49 µM)
MIC Enterococcus faecalis (GC 6189) (Enterococcus sp.; strain GC 6189): 4 µg/mL (≈ 2.74 µM)
